According to ChEMBL document CHEMBL1932970, “Facile synthesis of 1,2,3-triazole analogs of SGLT2 inhibitors by 'click chemistry'” (Bioorg Med Chem Lett, 2012):
Calls of active or inactive are those of the source. The calls are words filed in the database; no cut-off is given here.

Test system: Rattus norvegicus
Test: Antidiabetic activity in fasted Sprague-Dawley rat assessed as increase in urinary glucose excretion at 30 mg/kg, po administered 0.5 hrs before glucose challenge measured after 24 hrs by UV spectrophotometric analysis relative to control
Assay type: functional, organism-based
Parameters: dose 30 mg/kg
Conditions: Urine

In the case of OC[C@H]1O[C@@H](Cc2cn(Cc3ccc(-c4ccc(F)cc4)s3)nn2)[C@H](O)[C@@H](O)[C@@H]1O, the Activity is reported as “Active”.

For O=[N+]([O-])c1ccc(Cn2cc(C[C@@H]3O[C@H](CO)[C@@H](O)[C@H](O)[C@H]3O)nn2)cc1, the Activity was “Active”.

Cc1ccc(Cn2cc(C[C@@H]3O[C@H](CO)[C@@H](O)[C@H](O)[C@H]3O)nn2)cc1 was tested, and the Activity was “Active”.

In the case of CCOc1ccc(Cc2cc([C@@H]3O[C@H](CO)[C@@H](O)[C@H](O)[C@H]3O)ccc2Cl)cc1, the Activity is reported as “Active”.

For OC[C@H]1O[C@@H](Cc2cn(Cc3cc4ccc(Cl)cc4s3)nn2)[C@H](O)[C@@H](O)[C@@H]1O, the Activity was “Active”.

OC[C@H]1O[C@@H](Cc2cn(Cc3nc4ccccc4s3)nn2)[C@H](O)[C@@H](O)[C@@H]1O was tested, and the Activity was “Active”.

With OC[C@H]1O[C@@H](Cc2cn(Cc3ccccc3Cl)nn2)[C@H](O)[C@@H](O)[C@@H]1O the Activity was “Active”.

In the case of OC[C@H]1O[C@@H](Cc2cn(Cc3ccccc3)nn2)[C@H](O)[C@@H](O)[C@@H]1O, the Activity is reported as “Active”.
